Measured values published in patent US20030175690A1 (priority 1999, published 2003).

Target: NL4-3 protease (Human immunodeficiency virus type 1 group M subtype B, UniProt P12497)
Conditions: reference clone reconstructed with NL4-3 protease; HeLa cells; drug 0.1 μM; supernatant 48 hours after transfection
Description: Positive colonies were grown in 5 mL LB medium, the plasmids extracted, and HeLa cells grown to 50% confluence on an 8-well plate (Costar), transfected by lipofectin (Bethesda Research Laboratories) in triplicate using pΔproΔRTΔenv (0.5 μg) containing the exogenous HIV-1 PR sequences. […] The degree of inhibition of viral expression was documented by the ratio between the levels of p24Ag detected in the presence and in the absence of the anti-viral compound (R=p24Ag^drug,/p24Ag^medium). The percent Sensitivity Index (SI%=100×R^reference/R^sample) was introduced to normalise differences due to cell related variables among different experiments. Proteases displaying SI% values greater than 80% were considered fully sensitive; partially sensitive (intermediate phenotype) between 80 and 60%; and resistant when lower than 60%.
The HIV-1 PR coding sequences amplified from the 13 culture supernatants or directly from the 6 plasma samples were cloned into the pΔproΔRTΔenv nonreplicative backbone, and the resulting plasmids were transfected into semiconfluent HeLa cells. After 48 hours of incubation the supernatants were assayed for HIV-1 p24Ag concentration.
This index was determined by normalising the R value of each clinical sample (R^sample) to that of the NL4-3 reference strain (R^reference) evaluated in parallel experiment, according to the function SI%=100×R^reference/R^sample.

CC(C)c1nc(CN(C)C(=O)N[C@H](C(=O)N[C@@H](Cc2ccccc2)C[C@H](O)[C@H](Cc2ccccc2)NC(=O)OCc2cncs2)C(C)C)cs1 [RTV, ritonavir]
production of HIV-1 p24Ag by the reference clone in the presence of drug, compared with PI-free medium: strongly inhibited
